# Data as given in US9943502B2, “Lung cancer adjuvant therapy” (Texas Tech University System, priority 2014, dated 2018).
# Entries after “also recorded” stand apart in the source; their conditions may differ.
# What was measured:
# A549 cells [1] = experiment: Analysis of cell cycle by flow cytometry; format: cell-based; conditions: 25 μM cisplatin and/or 0.5 nM LMB, 24 and 48 h
# Procedure: Analysis of cell cycle by flow cytometry. The cells were harvested after 24 and 48 h of treatment. […] Cell cycle analysis was conducted by a Guava EasyCyte™ Flow Cytometer (Millipore) as previously described^32, 33. Each sample was run in triplicate and each experiment was repeated three times.
# A549 cells [2] = experiment: Western blot analyses of PARP1, p21 and survivin; format: cell-based; conditions: 24 and 48 h, P<0.05
# Procedure: Western blot analyses. […] Immunoblotting was performed using different primary antibodies and α-tubulin as the internal control.
# A549CRM1− cells = experiment: Cell viability assay (MTT); format: cell-based; conditions: FIG. 4A, P<0.05
# Procedure: Cell viability assay. Cell viability was evaluated using the MTT (3-(4,5-dimethylthiazol-2-yl)-2,5-diphenyltetrazolium bromide) assay as previously described^29, 33. […] Studies were performed independently in triplicate.
# A549 cells [3] = experiment: Array-based SYBR Green RT-PCR (RT2 Profiler PCR array, Human Cancer Drug Targets, 84 genes); format: cell-based
# Procedure: Array-based SYBR® Green RT-PCR. Constitutive gene expression profiling was performed using the RT^2 Profiler™ PCR array to analyze the expression of 84 genes involving in cancer signal pathways (Human Cancer Drug Targets, Qiagen) based on manufacturer's instructions and our previous publications^33, 34. Studies were performed in duplicate for each group.
# [4] = Treatment of mouse xenografts: body weight and side effects; format: in vivo, female athymic mice; conditions: two weeks after treatment; without deteriorating behavior and health condition
# Procedure: (§1) Treatment of mouse xenografts. Thirty-two female athymic mice, 7-8 weeks of age and 23.5 g in weight (strain code 088, Charles River Laboratory) were each injected subcutaneously with 1×10^6 lung cancer A549 cells in the lower flank. […] All injections were carried out for three times per week. Mice body weights and tumor sizes were measured three times per week.
# [5] = test system: lung cancer A549 cells xenografts; experiment: Treatment of mouse xenografts: tumor growth; format: in vivo, female athymic mice; conditions: intra-tumoral injection three times per week; Cis 2.5 mg/Kg, LMB 2 μg/Kg
# Procedure: Xenograft animal model. The handling of animals was in accordance with the Institutional Animal Care and Use Committee. Female athymic mice, 7-8 weeks of age and 23.5 g in weight (Charles River Laboratory) received subcutaneous injection of 1×10^6 A549 or A549CRM1− cells in the lower flank (n=8/group). Tumor volume was measured by a digital caliper (Thermo Fisher Scientific). The major longitudinal diameter (length) and the major transverse diameter (width) were determined. Tumor volume was calculated based on caliper measurements by the following formula: Tumor volume=½ (length×width^2).
# as §1
# lung cancer cells = conditions: cited from earlier work
# [6] = in vivo; cited from earlier work
# [7] = test system: normal bronchial epithelial cells; conditions: cited from earlier work
# phospho-p53 (Thr55) = phospho-p53 (Thr55) protein expression in BEAS-2B cells after NNK exposure; format: cell-based, human
# Procedure: (§2) Human normal lung epithelial cells BEAS-2B with NNK exposure/transformation or CRM1 stable overexpression. Human normal bronchial epithelial cell line BEAS-2B was obtained from American Type Culture Collection (ATCC). (1) For short-term NNK exposure, BEAS-2B cells were treated with 0, 10, 75, or 150 μM NNK for 24 and 72 h in triplicate as described in our previous study^29; (2) BEAS-2BNNK, an in vitro transformed cell model derived from BEAS-2B, was generated by exposure to NNK (15 μM) for 24 h and then continuously sub-cultured for 9 passages. […] Similarly, BEAS-2B was transfected with vector control for comparison. BEAS-2B, BEAS-2BNNK, and BEAS-2BCRM1+ cells were cultured in LHC-9 medium (Invitrogen) containing 100 U penicillin/mL and 100 μg/mL streptomycin.
# BEAS-2B cells = experiment: Soft agar colony assay of NNK-transformed BEAS-2B cells; format: cell-based, human; conditions: NNK 15 μM for 24 h, then 9 passages (BEAS-2BNNK), P<0.05
# Procedure: as §2
# Soft agar colony assay (Anchorage independent growth assay). Cells were suspended at 5×10^4 cells/mL for BEAS-2B, BEAS-2BNNK, and BEAS-2BCRM1+ or 2×10^4 cells/mL for A549 and A549CRM1− cells in growth medium containing 0.35% agar. Cell suspension was added to a 6-well tissue culture plate pre-coated with 0.7% solid agar. After 9-11 days of incubation (9 days for A549 and 11 days for BEAS-2B), the number of colonies/microscope area (6 randomly selected areas/well) was counted and their sizes were analyzed using cell staining (0.005% Crystal Violet) by microscope. This study was done in triplicate.
# CRM1 = CRM1 expression (qRT-PCR, Western blot) in NNK-transformed BEAS-2B cells; format: cell-based, human; conditions: BEAS-2BNNK, P<0.05
# Procedure: as §2
# Isolation of total RNA and quantitative real-time PCR (qRT-PCR). Total RNA was isolated using an RiNeasy® plus mini kit (Qiagen) following the manufacturer protocol. One-Step RT-PCR kit with SYBR green was used for amplification of total RNA (75 ng) by following the manufacturer's protocol (BioRad) and our recent publication^32. […] Threshold cycle number (Ct value) was analyzed using CFX Manager Software (Bio-Rad). The Ct value of CRM1 was normalized to the Ct value of GAPDH from same sample and the fold change in the expression was calculated by using the ΔΔCt method. […]
# lung tissues = experiment: Mouse model of NNK-induced lung tumors, Western blot of lung tumors; format: in vivo, FVB/N mice; conditions: NNK-treated mice, P<0.01
# Procedure: Mouse model and NNK-induced lung tumors. Male FVB/N mice are an intermediately susceptible strain with regard to spontaneous lung tumor formation and have been used for studies of NNK-induced lung tumorigenesis^31. Mice were each given two intra-peritoneal injections of 3 mg NNK per week (NNK-treated group, n=8) or 0.9% saline (vehicle control group, n=8). From each group, mice were sacrificed at 32-weeks after the last NNK- or saline-treatment. Lung tissues were fresh frozen or formalin-fixed and paraffin-embedded.
# [8] = cisplatin 10 and 25 μM with or without 0.5 nM LMB
structure (smiles),measurement,setting,value
"N.N.[Cl][Pt][Cl] [Cis, cisplatin]",cell cycle distribution compared with the control,A549 cells [1],significantly higher proportion of cells in S and G2/M phases
same,survivin expression level compared to controls,A549 cells [2],significantly decreased
same,PARP1 protein expression compared to vehicle-treated cells,A549 cells [2]; [8],significantly increased in a dose-response manner
same,p21 protein expression compared to vehicle-treated cells,A549 cells [2]; [8],significantly increased in a dose-response manner
same,sensitivity of A549CRM1− cells compared with A549 cells,A549CRM1− cells,even more sensitive
same,"expression level of AURKA, AURKB, CDK1, HIF1A, MDM4, PLK1, PLK4, and TNKS compared to the control","A549 cells [3]; 25 μM cisplatin, P<0.05",significantly decreased expression level
same,"expression of CTSB, GRB2, MDM2, and NF-κB compared to the control","A549 cells [3]; 25 μM cisplatin, P<0.05",increased expression
same,NF-κB expression,A549 cells [3]; A549 cells,increased expression of NF-κB
same,body weight for mice,[4],started to decrease gradually
same,tumor growth compared to the vehicle-treated control,[5],significant decrease in tumor growth; also recorded: significantly delayed tumor growth
"CCC(=C/[C@H](C)C/C=C/C(C)=C/[C@@H](C)C(=O)[C@@H](C)[C@H](O)[C@@H](C)C/C(C)=C/C(=O)O)/C=C/[C@@H]1OC(=O)C=C[C@@H]1C [LMB, leptomycin B]",cell cycle distribution compared with the control,A549 cells [1],did not alter the cell cycle distribution
same,effect on lung cancer cells,lung cancer cells,inhibit lung cancer cell growth and induce cytotoxicity
same,gene expression profile compared to the control group,A549 cells [3]; 0.5 nM LMB,No significant difference
same,side effects in the phase I clinical trial,[6],malaise and anorexia
same,effects on normal bronchial epithelial cells,[7],minimal effects
same,tumor growth compared to the vehicle-treated control,[5],growth curves followed a similar trend
"CN(CCCC(=O)c1cccnc1)N=O [NNK, 4-(methylnitrosamino)-1-(3-pyridyl)-1-butanone]",phosphorylated-p53 (p-p53) at Thr55 in NNK-transformed cells,"phospho-p53 (Thr55); BEAS-2BNNK cells, FIG. 2B",overexpressed
same,protein expression levels of p-p53 at Thr55 compared to vehicle-treated BEAS-2B cells,"phospho-p53 (Thr55); NNK 10, 75 and 150 μM for 24 and 72 h, P<0.05",dose-dependent decrease
same,soft agar colony number and colony size compared with vehicle-treated BEAS-2B cells,BEAS-2B cells,significant increase in both colony number and colony size
same,CRM1 expression at the mRNA level compared to vehicle-treated BEAS-2B cells,CRM1,2.6 folds
same,CRM1 expression at the protein level compared to vehicle-treated BEAS-2B cells,CRM1,~1.5 folds
same,CRM1 expression in lung tumor tissues compared with normal tissues,lung tissues; 32 weeks after last treatment,increased CRM1 expression
same,p-p53 at Thr55 in lung tumors compared with normal lung tissues,lung tissues,significant increase
